US20190255091A1, “RNAi AGENTS FOR [sequence] B VIRUS INFECTION” (priority 2016, published 2019)

How the values were obtained:
Hepatitis B Virus (HBV) [1] = test: Serum HBsAg levels in pHBV model mice (ELISA); assay type: in vivo; design: key to Average HBsAg levels normalized to pre-treatment (day −1) and PBS control / Average HBsAg levels normalized to pre-treatment and PBS control: fraction of pre-treatment level, relative to PBS control mean; conditions: single s.c. injection day 1, Example 7
Description: (§1) Six to eight-week-old female NOD.CB17-Prkdscid/NcrCrl (NOD-SCID) mice were transiently transfected in vivo with MC-HBV1.3 by hydrodynamic tail vein injection (Yang P L et al. “Hydrodynamic injection of viral DNA: a mouse model of acute hepatitis B virus infection,” PNAS USA 2002 Vol. 99: p. 13825-13830), administered 30 to 45 days prior to administration of an HBV RNAi agent or control. MC-HBV1.3 is a plasmid-derived minicircle that contains the same terminally redundant human hepatitis B virus sequence HBV1.3 as in plasmid pHBV1.3 and in the HBV1.3.32 transgenic mice (GenBank accession #V01460) (Guidotti L G et al., “High-level hepatitis B virus replication in transgenic mice,” J Virol 1995 Vol. 69, p 6158-6169.). 5 or 10 μg MC-HBV1.3 in Ringer's Solution in a total volume of 10% of the animal's body weight was injected into mice via tail vein to create pHBV model of chronic HBV infection. The solution was injected through a 27-gauge needle in 5-7 seconds as previously described (Zhang G et al., “High levels of foreign gene expression in hepatocytes after tail vein injection of naked plasmid DNA.” Human Gene Therapy 1999 Vol. 10, p 1735-1737.). At pre-dose (either day 1 pre-dose, day −1, or day −2), Hepatitis B surface antigen (HBsAg) HBsAg expression levels in serum were measured by ELISA and the mice were grouped according to average HBsAg expression levels.
(§2) HBV expression levels were normalized to pre-administration expression levels and to control mice injected with phosphate buffered saline (“PBS”).
Mice were anesthetized with 2-3% isoflurane and blood samples were collected from the submandibular area into serum separation tubes (Sarstedt AG & Co., Nümbrecht, Germany). Blood was allowed to coagulate at ambient temperature for 20 min. The tubes were centrifuged at 8,000×g for 3 min to separate the serum and stored at 4° C.
Serum was collected and diluted 10 to 8000-fold in PBS containing 5% nonfat dry milk. […] HBsAg levels were determined with a GS HBsAg EIA 3.0 kit (Bio-Rad Laboratories, Inc., Redmond, Wash.) as described by the manufacturer. Recombinant HBsAg protein, ayw subtype, also diluted in nonfat milk in PBS, was used as a primary standard (Aldevron).
HBsAg expression for each animal was normalized to the control group of mice injected with PBS in order to account for the non-treatment related decline in expression of MC-HBV1.3. First, the HBsAg level for each animal at a time point was divided by the pre-treatment level of expression in that animal in order to determine the ratio of expression “normalized to pre-treatment”. Expression at a specific time point was then normalized to the control group by dividing the “normalized to pre-treatment” ratio for an individual animal by the average “normalized to pre-treatment” ratio of all mice in the normal PBS control group.

Hepatitis B Virus (HBV) [2] = test: Serum HBV DNA levels in pHBV model mice (qPCR); assay type: in vivo; conditions: single s.c. injection day 1, Example 7
Description: as §1, §2
Equal volumes of serum from mice in a group or subgroup were pooled to a final volume of 100 μL. DNA was isolated from serum samples using the QIAamp MinElute Virus Spin Kit (Qiagen, Valencia, Calif.) following the manufacturer's instructions. Sterile 0.9% saline was added to each sample to a final volume of 200 μL. Serum samples were added to tubes containing buffer and protease. Carrier RNA was added to aid in the isolation of small amounts of DNA. […] After incubating 15 min at 56° C., nucleic acids were precipitated from the lysates with ethanol and the entire solution applied to a column. After washing, the samples were eluted into a volume of 50 μL Buffer AVE.
The number of copies of HBV genomes in DNA isolated from the pHBV mouse model serum was determined by qPCR. Plasmid pSEAP-HBV353-777, encoding a short segment of the HBV genome within the S gene (bases 353-777 of GenBank accession #V01460), was used to create a six log standard curve. Samples with recovery of DNA below 2 standard deviations from the average, based on detection of pHCR/UbC-SEAP were omitted. TaqMan chemistry-based primers and probes with fluor/ZEN/IBFQ are utilized.
qPCR assays were performed on a 7500 Fast or StepOne Plus Real-Time PCR system (Life Technologies). For evaluation of HBV DNA in serum, DNA was isolated from singlet or duplicate purification steps from pooled group serum samples. Quantitations of HBV DNA and recovery control plasmid were determined by qPCR reactions performed in triplicate. The probes to quantitate HBV and pHCR/UbC-SEAP were included in each reaction.

AD04982: HBV RNAi agent duplex AM06464-AS/AM06150-SS (antisense UACCAAUUUAUGCCUACAGCC; sense GGCUGUAGGCAUAAAUUGGUA; chemistry not fully specified)
Average HBsAg levels normalized to pre-treatment (day −1) and PBS control (Hepatitis B Virus (HBV) [1]; Day 8, 1.0 mg/kg): 0.519 ± 0.058
Average HBsAg levels normalized to pre-treatment (day −1) and PBS control (Hepatitis B Virus (HBV) [1]; Day 8, 2.0 mg/kg): 0.342 ± 0.062
Average HBsAg levels normalized to pre-treatment (day −1) and PBS control (Hepatitis B Virus (HBV) [1]; Day 15, 1.0 mg/kg): 0.375 ± 0.012
Average HBsAg levels normalized to pre-treatment (day −1) and PBS control (Hepatitis B Virus (HBV) [1]; Day 15, 2.0 mg/kg): 0.255 ± 0.046
Average HBsAg levels normalized to pre-treatment (day −1) and PBS control (Hepatitis B Virus (HBV) [1]; Day 22, 1.0 mg/kg): 0.422 ± 0.046
Average HBsAg levels normalized to pre-treatment (day −1) and PBS control (Hepatitis B Virus (HBV) [1]; Day 22, 2.0 mg/kg): 0.272 ± 0.122
Average HBsAg levels normalized to pre-treatment (day −1) and PBS control (Hepatitis B Virus (HBV) [1]; Day 29, 1.0 mg/kg): 0.525
Average HBsAg levels normalized to pre-treatment (day −1) and PBS control (Hepatitis B Virus (HBV) [1]; Day 29, 2.0 mg/kg): 0.314
Average Serum HBV DNA levels normalized to pre-treatment and PBS control (Hepatitis B Virus (HBV) [2]; Day 8, 1.0 mg/kg): 0.358 ± 0.207
Average Serum HBV DNA levels normalized to pre-treatment and PBS control (Hepatitis B Virus (HBV) [2]; Day 8, 2.0 mg/kg): 0.516 ± 0.163
Average Serum HBV DNA levels normalized to pre-treatment and PBS control (Hepatitis B Virus (HBV) [2]; Day 15, 1.0 mg/kg): 0.428 ± 0.073
Average Serum HBV DNA levels normalized to pre-treatment and PBS control (Hepatitis B Virus (HBV) [2]; Day 15, 2.0 mg/kg): 0.523 ± 0.264
Average Serum HBV DNA levels normalized to pre-treatment and PBS control (Hepatitis B Virus (HBV) [2]; Day 22, 1.0 mg/kg): 0.433 ± 0.220
Average Serum HBV DNA levels normalized to pre-treatment and PBS control (Hepatitis B Virus (HBV) [2]; Day 22, 2.0 mg/kg): 0.244 ± 0.123
Average Serum HBV DNA levels normalized to pre-treatment and PBS control (Hepatitis B Virus (HBV) [2]; Day 29, 1.0 mg/kg): 0.474 ± 0.090
Average Serum HBV DNA levels normalized to pre-treatment and PBS control (Hepatitis B Virus (HBV) [2]; Day 29, 2.0 mg/kg): 0.241 ± 0.085
Average Serum HBV DNA levels normalized to pre-treatment and PBS control (Hepatitis B Virus (HBV) [2]; Day 36, 1.0 mg/kg): 0.509 ± 0.163
Average Serum HBV DNA levels normalized to pre-treatment and PBS control (Hepatitis B Virus (HBV) [2]; Day 36, 2.0 mg/kg): 0.543 ± 0.079
